# Measurements taken from patent US8076485B2, “Methylphenidate derivatives and uses of them” (priority 2005, dated 2011).
# Key:
# erythropoietin (EPO) = assay: Erythropoietin (EPO) release from HepG2 cells (ELISA); type: cell-based, human; conditions: HepG2, hypoxia (5% CO2), 24 hours; Cpd II 15 μg/ml, LY 294002 25 μM; hypoxia alone 108.39 ± 2.81
# Experimental: HepG2 is a human hepatic cancer cell line, which was obtained from ATCC. HepG2 cells were grown to confluence in 25 cm^2 flasks in IMDM medium containing 10% FCS. Then, the cells were trypsinized as follows. The medium in each flask was aspirated and replaced with 5 ml of 0.025% trypsin/EDTA (Cambrex). The cells were monitored on a microscope until they no longer adhered to the flasks. Then, 5 ml of trypsin neutralizing solution (TNS) (Cambrex) were added to each flask to stop the reaction. The cell suspension was centrifuged at 1000 rpm for 10 minutes, and the supernatants were aspirated. The cells were reconstituted in fresh medium and counted. Then, 4 ml of the cell suspension in medium containing at 1.22×10^6 cells/ml were mixed with an additional 1 ml of medium. Next, 0.5 ml/well of the resulting cell suspension was added to wells in a 24-well culture plate (about 500,000 cells/well). The cells were treated as indicated in Table 5 below and incubated for 24 hours at 37° C., with or without 5% CO2. The supernatants were removed from the wells and centrifuged to remove debris. Next, the supernatants were analyzed for erythropoietin (EPO) production. EPO was measured by ELISA using a kit obtained from R & D Systems, Minneapolis, Minn. (catalog no. DE900) following the manufacturer's instructions.
# NFκB = assay: Activated NFκB in TNFα- or VEGF-treated HIAECs (TransAM assay); type: cell-based; conditions: Homo sapiens, TNFα 10 ng/ml, Cpd II 15 μg/ml, LY 294002 10 μM, read-out: Percent Inhibition (NFκB)
# Experimental: Passage 8 (human iliac artery endothelial cells (HIAECs) (obtained from ATCC; catalog no. CC-2545) were grown to confluence in 25 cm^2 flasks in EGM-2 medium. Eighteen hours prior to the experiment, the medium was replaced with EGM-2 medium containing 0.1% FCS plus heparin, GA1000 (gentamycin) and bovine pituitary extract (all from Cambrex) to place the cells in a resting state. To perform the experiment the medium was aspirated from the flasks, and the following additives were added to the flasks in fresh medium (total volume of 5 ml/flask): 15 μg/ml of the compound of formula II (Cpd II) or 10 μM LY 294002. The flasks were incubated 2 hours at 37° C., 5% CO2. After this incubation, VEGF or TNFα was added to give a final concentration 10 ng/ml, and the flasks were incubated for an additional 30 minutes. Then, the amount of NFκB was determined using a TransAM™ NFκB p65/NFκB p50 Transcription Factor Assay Kit and a Nuclear Extract Kit from Active Motif North America, Carlsbad, Calif., as described in Example 12.
# [1] = threo versus erythro methylphenidate; cited from earlier work
# TNFα = TNFα release from LPS-stimulated THP-1 monocytes (ELISA); type: cell-based; conditions: THP-1, LPS 200 ng/ml, 24 hours; Cpd II 15 μg/ml, Dex 10 μM
# Experimental: (§1) THP-1 is a monocyte cell line obtained from American Type Culture Collection (ATCC) (catalog no. TIB-202). […] After 1 hour, lipopolysaccharide (LPS) (obtained from Sigma) was added to the cultures to give a final concentration of 200 ng/ml, and the cells were then incubated for an additional 4 hours or for an additional 24 hours. After the incubation, the cells were centrifuged, and the supernatants were collected. The concentrations of IL-8 and TNFα in the supernatants were determined by ELISA.
# The TNFα ELISA was performed as described in Example 2.
# TCR-positive cells = assay: Annexin staining of TCR-positive cells (flow cytometry, cell death); type: cell-based, human; conditions: PHA plus dexamethasone 10 μM
# Experimental: After this incubation, PHA was added to give a final concentration of 5 μg/ml, and the cells were incubated for an additional 72 hours at 37° C., 5% CO2. All cultures were performed in triplicate. Cells were then removed by centrifugation at 1000 rpm for 10 minutes.
# The cells were further analyzed by flow cytometry Annexin was used to determine populations of dead or dying cells. Anti-CD69 antibody was used to establish the level of cellular activation. Antibody to T-cell receptor αβ (TCR) was also used. Recombinant Annexin 5 (PE and FITC conjugates) and the antibodies were all purchase from Caltag (Burlingham, Calif.) and used following the manufacturer's recommendations.
# IL-8 = IL-8 release from LPS-stimulated THP-1 monocytes (ELISA); type: cell-based; conditions: THP-1, LPS 200 ng/ml, 24 hours; Cpd II 15 μg/ml, Dex 10 μM
# Experimental: as §1
# The concentrations of IL-8 in the supernatants were determined by ELISA performed as described in Example 4.
structure (smiles),measurement,setting,value
"O=c1cc(N2CCOCC2)oc2c(-c3ccccc3)cccc12 [LY 294002, reference compound]",Mean Units/ml EPO,erythropoietin (EPO),52.99 ± 1.04 Units/ml
same,inhibition at 10 µM,NFκB,10%
"COC(=O)C(c1ccccc1)C1CCCCN1 (single isomer, unassigned) [threo diastereomer]",potency relative to the erythro diastereomer,[1],about 80 times
"C[C@@H]1C[C@H]2[C@@H]3CCC4=CC(=O)C=C[C@]4(C)[C@@]3(F)[C@@H](O)C[C@]2(C)[C@@]1(O)C(=O)CO [dexamethasone, reference compound]",Mean TNFα Concentration,TNFα,94.759 ± 8.755 pg/mL
same,Annexin staining of TCR-positive cells,TCR-positive cells,48%
same,Mean IL-8 Concentration,IL-8,2300.00 ± 283.41 pg/mL
